# Reference: PubChem BioAssay (NCI)
#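 Following 48 hours of exposure in 96-well plates, responses at five concentrations were used to interpolate endpoints linearly. TGI denotes the concentration required for complete inhibition of growth.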
# Key:
# Experiment in all cases: DTP human tumour cell line panel, 48 h
# 786-0 renal = system: 786-0 renal
# HCT-15 colon = system: HCT-15 colon
# M14 melanoma = system: M14 melanoma
# DU-145 prostate = system: DU-145 prostate
# MDA-MB-231 breast = system: MDA-MB-231 breast
# COLO 205 colon = system: COLO 205 colon
# HL-60(TB) leukemia = system: HL-60(TB) leukemia
# SF-295 CNS = system: SF-295 CNS
# KM12 colon = system: KM12 colon
# SK-MEL-28 melanoma = system: SK-MEL-28 melanoma
# LOX IMVI melanoma = system: LOX IMVI melanoma
# T-47D breast = system: T-47D breast
# A498 renal = system: A498 renal
# MCF7 breast = system: MCF7 breast
# RXF 393 renal = system: RXF 393 renal
# BT-549 breast = system: BT-549 breast
SMILES,TGI (786-0 renal) [µM],TGI (HCT-15 colon) [µM],TGI (M14 melanoma) [µM],TGI (DU-145 prostate) [µM],TGI (MDA-MB-231 breast) [µM],TGI (COLO 205 colon) [µM],TGI (HL-60(TB) leukemia) [µM],TGI (SF-295 CNS) [µM],TGI (KM12 colon) [µM],TGI (SK-MEL-28 melanoma) [µM],TGI (LOX IMVI melanoma) [µM],TGI (T-47D breast) [µM],TGI (A498 renal) [µM],TGI (MCF7 breast) [µM],TGI (RXF 393 renal) [µM],TGI (BT-549 breast) [µM]
O=C(c1cc(Cl)cc(Cl)c1)N1CCN(C(=O)c2cc(Cl)cc(Cl)c2)C1=S,7.58,31,27.3,21.5,31.9,35.2,6.28,44.7,24.8,> 54.5,11.6,45.2,31.6,12.5,26.4,70.8
COC(=O)C1(OC(=O)Sc2ccccc2)CCN(C)CC1,50.3,> 63.1,> 58.6,> 100,59,29.8,24,> 59.5,> 47.4,> 100,28.4,> 100,45.8,> 100,34.9,7.04
CCOC(=O)c1cc(C2(O)CCN(CC(C)CC)C2=O)c(-c2cc(C)no2)[nH]1 (stereo not drawn),> 100,> 100,> 100,> 100,> 100,> 100,> 100,> 100,> 100,> 100,> 100,> 100,> 100,> 100,> 100,> 100
COc1ccc(C(=O)/C=C/c2ccncc2)cc1OC,23.5,28.7,27.8,31.6,24.3,29.1,5.02,29.9,–,31.7,3.05,30.9,30.9,13.4,25.7,18.6
N#CC1(C#N)C2CCCCC23OC(=N)C1(C#N)C(c1ccccc1)O3 (stereo not drawn),33.7,28.6,28.7,64.3,33.8,34.1,–,> 100,25.8,–,45.1,57.9,48.9,49.9,> 100,34.7
CC(C)(C)c1cc(C(=O)/C=C/C=C/c2ccccc2)cc(C(C)(C)C)c1O,36.1,> 67.1,41.4,98.1,49,34.9,8.88,> 100,> 92.7,> 100,50.9,> 100,> 80.7,> 86.6,15.1,57.2
O=C1C[C@H]2[C@@H](O1)[C@@H](O)CN1C(=O)c3ccccc3[C@H]21,> 100,> 100,> 100,> 100,> 100,> 100,–,> 100,> 100,> 100,> 100,> 100,> 100,> 100,> 100,> 100
CCOC(=O)c1ccc(C(=O)/C(C#N)=C2\CCCN2C)[nH]1,> 100,> 100,> 100,> 100,> 100,> 100,> 100,> 100,> 100,> 100,> 100,> 100,> 100,> 100,> 100,> 100
CCCCCC(/C=C/C1CCC(=O)C1CC#C[Si](C)(C)C)OCc1ccccc1 (stereo not drawn),28.3,30.1,77.8,> 87.5,54.4,39.3,–,39.8,33,> 58,35.8,85.1,> 85.8,44,30.1,33.8
COc1ccc(C(OCC2OC(n3cc(C)c(=O)[nH]c3=O)CC2n2cc(Cn3cc(Br)c(=O)[nH]c3=O)nn2)(c2ccccc2)c2ccccc2)cc1 (stereo not drawn),> 100,> 100,> 100,> 100,> 100,> 100,5.09,> 100,> 100,> 100,> 100,> 100,> 100,> 100,> 100,> 100
CC(C)(C)NC(=O)N1N=C(c2ccccc2)C1c1ccccc1 (stereo not drawn),32,75.2,> 100,> 100,> 100,> 100,> 100,> 100,> 100,> 100,> 100,> 100,> 100,> 100,36.6,> 100
COC(=O)C1C=CN(N(C)C)C2=C1C(=O)c1c(O)cccc1C2=O (stereo not drawn),11.4,5.16,–,2.96,5.79,3.66,–,3.31,6.95,3.87,–,6.45,7.47,6.38,14.1,3.86
COC(=O)c1c(O)ccc2c1c1c(n2Cc2ccc(Cl)cc2Cl)C(=O)c2ccccc2C1,> 100,> 100,> 100,> 100,> 100,> 100,> 100,–,> 100,> 100,61.9,> 100,> 100,89.9,78.8,> 100
CC(=O)OC1O[C@@H](C(C)(C)O)CC[C@@H]1[C@H]1CC[C@@]2(C)C3=C(CC[C@]12C)[C@@]1(C)C[C@@H](OC(=O)CC(C)(O)CC(=O)O)[C@H](OC(C)=O)C(C)(C)C1CC3 (stereo partly drawn),33.9,43.1,34.8,33.2,45.5,–,65.1,32.4,44.9,30.8,32.6,40.3,33.8,32.5,–,29.9
CC1(C)OC(=C(C#N)C#N)C(C#N)=C1/C=C/c1ccncc1,3.66,3.79,6.56,6.21,4.36,3.27,–,5.28,9.14,5.43,3.51,6.26,19.4,4.28,5.07,3.18
